A short description of data set [1]: Determination of bioavailability (BA) in mouse. In kind it is in vivo. Particulars: fasted male ICR mice; oral 10 mg/kg vs intravenous 3 mg/kg; from plasma AUC. Here is the method:
(5) Determination of Bioavailability (BA):
The substance for analysis was dissolved in distilled water (for oral administration; 10 mg/kg) or physiological salt solution (for intravenous administration; 3 mg/kg) to prepare a solution for administration. This solution was administered to fasted ICR mice (male, 6 weeks aged), the whole blood was extracted from the heart under ether anesthesia at 5 min. (intravenous administration group only), 15 min., 30 min., 1 hr., 2 hr. and 4 hr. after the administration, and the plasma was separated by the centrifugation (3,500 rpm, 30 min., 4° C.) to produce the specimen (n=4). Using the above method for determining FXa inhibiting activity, the calibration curve for the substance for analysis was previously prepared and the concentration of the substance for analysis in the specimen was determined. The lower area of the concentration in plasma—time curve (AUC) was calculated and then the bioavailavility in the mouse (BA) was calculated according to the following formula: [formula]

In another data set the target is T1, human thrombin (Homo sapiens, UniProt P00734).
T1 construct: 1 U/mL human thrombin
Put plainly: Determination of thrombin inhibiting activity, chromogenic substrate S-2238. Type of data set: biochemical. The following applies: substrate S-2238, 30 min incubation, A405, read-out: Thrombin inhibition activity IC50. The procedure:
(2) Determination of Thrombin Inhibiting Activity:
To 70 μL of the specimen serially diluted with water, 90 μL of 100 mM Tris buffer (pH 8.4), 20 μL of 50 mM Tris buffer (pH 8.4) containing 1 U/mL human thrombin, and 2 mM substrate (Daiichi Chemical S-2238) were added and incubated for 30 min., 50μL of 50% acetic acid was added, and the absorbance (A405) were determined. As, a blank, Tris buffer was added instead of thrombin while as a control, water is added instead of the specimen. The 50% inhibition activity (IC50) was determined as the indication of thrombin inhibiting activity.

The target in data set [2] is T2, human acetylcholine esterase (Homo sapiens, UniProt P22303).
T2 construct: purchased Sigma C-5400
The data set is described as follows: Determination of acetylcholine esterase (AChE) inhibiting activity. Type of data set: biochemical. Particulars: read-out: AChE inhibition activity IC50. Here is the method: (4) Determination of Acetylcholine Esterase (AChE) Inhibiting Activity
The substance for analysis was dissolved in distilled water as specimen. To 50 μL of the specimen serially diluted, 50 μL of enzyme solution, wherein human acetylcholine esterase (manufactured by Sigma, C-5400) had been dissolved in distilled water at 0.1 U/mL was added. To this solution, 50 μL of the solution which was prepared by dissolving 5,5′-dithiobis (manufactured by Nacarai Tesque, 141-01) in phosphate buffer (0.1M NaH2PO4—Na2HPO4, pH 7.0) at 0.5 mM is,added and mixed, and reacted with 50 μL of the solution wherein acetylthiocholine iodide (Wako Company, 017-09313) had been dissolved in phosphate buffer at 3 mM, at room temperature. As a control distilled water was added instead of the substance for analysis and the absorbance (A450) was determined over time. As a blank, phosphate buffer was added instead of the enzyme solution and the 50% inhibition activity (IC50),was determined.

In another data set the target is human FXa (Homo sapiens, UniProt P00742). Put plainly: Determination of inhibiting activity of activated blood coagulation factor X (FXa), chromogenic substrate S-2765. In kind it is biochemical. Particulars: substrate S-2765, 30 min incubation, A405, read-out: Fxa inhibition activity IC50. The procedure:
(1) Determination of Inhibiting Activity of Activated Blood Coagulation Factor X (FXa):
The substance for analysis was dissolved in water or water wherein a suitable concentration of organic solvents (DMSO ethanol or .methanol) had been added, as a specimen. To 70 μL of the specimen serially diluted with water, 90 μL of 100 mM Tris buffer (pH 8.4), 20 μL of 50 mM Tris buffer (pH 8.4) containing 50 mU/mL human FXa, and 2 mM substrate (Daiichi Chemical S-2765) were added and incubated for 30 min., 50 μL of 50% acetic acid was added, and the absorbance (A405) were determined. As a blank, Tris buffer was added instead of FXa while, as a control, water was added instead of the specimen. The 50% inhibition activity (IC50) was determined as the indication of FXa inhibiting activity.

Another data set relates to normal human plasma. The data set is described as follows: Determination of anticoagulation activity (APTT). Type of data set: biochemical. Particulars: concentration corresponding to 2-fold elongation of coagulation time. Here is the method:
(3) Determination of Anticoagulation Activity (APTT):
To 100 μL of normal human plasma (Ci-Trol®) manufactured by DADE, 100 μL of the specimen was added, and incubated at 37° C. for 1 minute. To this solution, 100 μL of APTT reagent (manufactured by DADE) which was, retained at 37° C. was added, and after incubating at 37° C. for 2 minutes, 100 μL of 25 mM calcium chloride solution was added, and the coagulation time was determined using the coagulation measurement apparatus manufactured by AMELUNG. The coagulation time when physiological salt solution was added instead of the analyte is used as a control, the concentration of the specimen corresponding to the 2-fold elongation of this coagulation time (CT2) is calculated, and this value is used as,the indication of the anticoagulation activity.

Molecules are shown by their SMILES. Where a name gives a salt, the structure may show the parent alone. Some results are limits rather than exact numbers.

T2 sequence (P22303 32-617 isoform P22303-2 limits assumed): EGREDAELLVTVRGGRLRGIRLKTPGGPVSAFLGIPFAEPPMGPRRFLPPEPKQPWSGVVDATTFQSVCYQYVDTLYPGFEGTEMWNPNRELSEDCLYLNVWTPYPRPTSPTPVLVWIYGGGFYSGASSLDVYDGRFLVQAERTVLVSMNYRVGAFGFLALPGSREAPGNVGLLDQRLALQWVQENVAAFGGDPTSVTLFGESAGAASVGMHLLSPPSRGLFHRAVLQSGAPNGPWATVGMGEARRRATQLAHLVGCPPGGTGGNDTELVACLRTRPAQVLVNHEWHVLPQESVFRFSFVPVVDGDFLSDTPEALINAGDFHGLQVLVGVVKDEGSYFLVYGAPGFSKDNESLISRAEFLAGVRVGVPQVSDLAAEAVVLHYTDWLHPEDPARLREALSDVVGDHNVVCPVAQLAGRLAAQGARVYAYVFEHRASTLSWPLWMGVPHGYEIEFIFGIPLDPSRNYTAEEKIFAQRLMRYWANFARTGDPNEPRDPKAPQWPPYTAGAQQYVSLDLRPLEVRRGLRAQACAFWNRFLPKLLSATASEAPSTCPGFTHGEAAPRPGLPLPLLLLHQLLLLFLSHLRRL
Sequence of human FXa (P00742 235-488 limits assumed): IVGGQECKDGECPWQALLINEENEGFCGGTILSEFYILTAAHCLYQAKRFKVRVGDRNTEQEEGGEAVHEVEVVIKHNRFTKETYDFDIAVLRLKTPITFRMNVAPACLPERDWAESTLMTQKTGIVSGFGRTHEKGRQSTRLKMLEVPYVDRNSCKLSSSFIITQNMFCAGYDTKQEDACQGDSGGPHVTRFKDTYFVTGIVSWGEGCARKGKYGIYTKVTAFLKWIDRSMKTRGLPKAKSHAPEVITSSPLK
Sequence of human FXa (P00742 41-179 partner limits assumed): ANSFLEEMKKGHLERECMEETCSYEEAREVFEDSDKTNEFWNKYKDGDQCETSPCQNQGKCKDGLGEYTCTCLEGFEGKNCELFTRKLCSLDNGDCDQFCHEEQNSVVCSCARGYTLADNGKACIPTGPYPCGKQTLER

Regarding `CC(=N)N1CCC(CNCc2cc(C(=O)O)cc(-c3cccc(C(=N)N)c3)c2)CC1` [Example 70], in data set [1], the “Mouse BA” value came out at 11%. Also, the half-inhibitory concentration (IC50) (in general, the concentration that inhibits the measured activity by half) on human thrombin was above 1000 µM; in data set [2], 140 µM; on human FXa it was 0.19 µM. Further, the “APTT CT2” value with normal human plasma is 2.0 µM.
The matching figures for `CC(=N)N1CCC(CN(CCO)Cc2cc(C(=O)O)cc(-c3cccc(C(=N)N)c3)c2)CC1` [Example 81]: 7%, 820 µM, 130 µM, 0.21 µM and 2.8 µM.
With `CC(=N)N1CCC(COCc2cc(CCC(=O)O)cc(-c3cccc(C(=N)N)c3)c2)CC1` [Example 82], in data set [1], the “Mouse BA” value is recorded as 11%. In addition, the IC50 is above 1000 µM on human thrombin, 170 µM in data set [2] and 0.13 µM at human FXa. Besides, in the data set with normal human plasma, the “APTT CT2” value came to 1.9 µM.
`N=C(N)c1cccc(-c2cc(CNCC3CCN(CCO)CC3)cc(C(=O)O)c2)c1` [Example 72]: the “Mouse BA” value in data set [1] is given as 13%. The results for the IC50 (at human thrombin; in data set [2]; at human FXa) were above 1000 µM, above 250 µM and 1.2 µM, respectively. In addition, the “APTT CT2” value with normal human plasma came out at 11 µM.
As to `CC(=N)N1CCC(COCc2cc(C(=O)O)cc(-c3cccc(C(=N)N)c3)c2)CC1` [Example 61, 3-(3-Amidinophenyl)-5-[(1-acetoimidoyl-4-piperidinyl)methoxymethyl]benzoic Acid.hydrochloride], the “Mouse BA” value in data set [1] amounted to 10%. In addition, the IC50 on human thrombin is above 1000 µM; in data set [2] it was 49 µM; on human FXa, 0.063 µM. Also, the “APTT CT2” value in the data set on normal human plasma turned out to be 0.76 µM.
The matching figures for `CC(=N)N1CCC(CN(C)Cc2cc(C(=O)O)cc(-c3cccc(C(=N)N)c3)c2)CC1` [Example 74]: 13%, above 1000 µM, 150 µM, 0.59 µM and 5.4 µM.
In the case of `N=C(N)c1cccc(-c2cc(CNCC3CCCCC3)cc(C(=O)O)c2)c1` [Example 73], the IC50 is above 1000 µM at human thrombin, above 250 µM in data set [2] and 1.7 µM on human FXa. For the same compound, the “APTT CT2” value in the data set on normal human plasma came out at 13 µM.

For the origin of these results see US6706745B1, “Biphenylamidine derivatives” (Teijin Limited, priority 1997, dated 2004).
